Measurements reported in patent US8492557B2, “Ester pro-drugs of [3-(1-(1H-imidazol-4-yl)ethyl)-2-methylphenyl] methanol” (Allergan, Inc., priority 2010, dated 2013).
Like-named read-outs stand apart in the source and are kept apart here.

Assays:
human alpha 2A receptor = target: T1, human alpha 2A receptor (Homo sapiens, UniProt P08913); test: FLIPR Ca+2 influx assay, a2A; format: cell-based; conditions: for a2A (eff): efficacy in brackets, norepinephrine is the standard full agonist, HEK 293 cells
T1 construct: expressed in transfected cells; host or cells: HEK 293
T1 sequence (P08913 1-465): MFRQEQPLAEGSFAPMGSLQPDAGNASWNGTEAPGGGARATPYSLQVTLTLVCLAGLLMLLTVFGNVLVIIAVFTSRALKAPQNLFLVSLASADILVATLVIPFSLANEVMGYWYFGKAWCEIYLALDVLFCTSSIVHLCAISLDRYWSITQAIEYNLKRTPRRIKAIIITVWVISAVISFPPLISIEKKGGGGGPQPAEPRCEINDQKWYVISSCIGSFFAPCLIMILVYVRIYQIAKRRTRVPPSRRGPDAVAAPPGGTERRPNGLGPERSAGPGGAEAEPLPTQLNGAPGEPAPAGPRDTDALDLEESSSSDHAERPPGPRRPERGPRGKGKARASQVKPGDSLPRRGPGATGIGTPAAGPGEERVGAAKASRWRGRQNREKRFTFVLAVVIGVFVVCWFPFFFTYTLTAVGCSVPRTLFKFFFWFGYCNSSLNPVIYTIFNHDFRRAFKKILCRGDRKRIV
Description: (§1) HEK 293 cells stably expressing the bovine α1A receptor, human alpha 2A receptor and the chimeric G protein Gqi5, are plated in poly-D-lysine coated 384-well plates at 20,000-40,000 cells per well and grown overnight in DMEM supplemented with 10% fetal bovine serum. For FLIPR (fluorometric image plate reader) evaluation, cells are washed twice with HBSS/HEPES Buffer (1× Hanks Buffered Salt Solution, 20 mM HEPES, pH 7.4) prior to the addition of Fluo-4-AM (4 uM Fluo-4-AM, 0.04% pluronic acid in HBSS/HEPES Buffer), a calcium-sensitive dye. Cells are loaded with dye for 40 minutes at 37° C., then washed 4 times with HBSS/HEPES Buffer. For both the agonist and antagonist assay, the test compounds are tested between 0.64 nM-10,000 nM.
(§2) For an agonist assay, the reaction is initiated by the addition of the appropriate dilutions of compounds and the transient calcium signal captured. The peak height of the calcium curve is determined and utilized for calculation of EC50 and efficacy using ActivityBase. Norepinephrine is the standard full agonist used for evaluating alpha-1 and alpha-2 receptor activity.
The residual norepinephrine peak height is compared to the non-antagonized norepinephrine peak height for the determination of % antagonism.

bovine α1A receptor = target: T2, bovine α1A receptor (Bos taurus, UniProt P18130); test: FLIPR Ca+2 influx assay, a1A; format: cell-based; conditions: for a1A (eff): efficacy in brackets, norepinephrine is the standard full agonist, HEK 293 cells
T2 sequence (P18130 1-466): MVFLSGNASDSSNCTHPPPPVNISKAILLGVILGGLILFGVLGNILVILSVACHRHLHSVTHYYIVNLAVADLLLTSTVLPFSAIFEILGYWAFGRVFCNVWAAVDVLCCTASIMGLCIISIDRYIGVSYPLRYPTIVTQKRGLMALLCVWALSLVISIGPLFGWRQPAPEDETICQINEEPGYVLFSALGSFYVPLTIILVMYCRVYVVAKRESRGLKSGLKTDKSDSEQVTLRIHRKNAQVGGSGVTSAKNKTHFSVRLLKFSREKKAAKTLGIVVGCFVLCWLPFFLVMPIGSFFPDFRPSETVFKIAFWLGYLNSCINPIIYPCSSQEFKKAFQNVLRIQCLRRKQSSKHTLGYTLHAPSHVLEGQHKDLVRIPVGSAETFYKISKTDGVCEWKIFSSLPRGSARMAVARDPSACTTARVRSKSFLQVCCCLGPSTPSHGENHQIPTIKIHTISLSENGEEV
Description: as §1, §2
However, the antagonist blocks the transient calcium signal of the standard agonist norepinephrine in a dose-dependent manner. The residual norepinephrine peak height is compared to the non-antagonized norepinephrine peak height for the determination of % antagonism.

| Compound | a2A (eff) (human alpha 2A receptor) | EC50 (bovine α1A receptor; HEK 293 cells with chimeric G protein Gqi5, agonist assay, tested 0.64 nM-10,000 nM, n/a: Not active, read-out: a1A EC50) [nM] | a1A (eff) (bovine α1A receptor) | EC50 (human alpha 2A receptor) [nM] | EC50 (bovine α1A receptor) [nM] |
| --- | --- | --- | --- | --- | --- |
| Brc1c(NC2=NCCN2)ccc2nccnc12 [Brimonidine] | 0.95 | 600 to 2400 | 0.3 | – | – |
| Cc1c(CO)cccc1[C@H](C)c1c[nH]cn1 [(S)-[3-(1-(1H-imidazol-4-yl)ethyl)-2-methylphenyl]methanol] | 0.9 | – | 0.7 | 25 | 340 to 2400 |
